Measurements from the supplement of paper PMC10307832.

Key:
Apatinib + Foretinib = compound: N#CC1(c2ccc(NC(=O)c3cccnc3NCc3ccncc3)cc2)CCCC1 [Apatinib] + COc1cc2c(Oc3ccc(NC(=O)C4(C(=O)Nc5ccc(F)cc5)CC4)cc3F)ccnc2cc1OCCCN1CCOCC1 [Foretinib] (partner 0.25 µM); test: relative viability (nuclei count vs DMSO), 5 days (fraction); higher = more cells survive
In short: (§1)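 After 5 days of treatment, lung cancer cells in 1536-well plates were fixed and stained in a single step (final 0.05% Triton X-100, 1% formaldehyde, 1 ug/ml Hoechst) and their nuclei counted on 4× images. Treatment had been applied by pin tool the day after seeding as one drug alone or as a fixed anchor-drug dose with five library-drug doses (not always all listed) in √10 steps. Relative viability is the nuclei count of treated wells divided by that of vehicle wells, and values are medians of duplicate plates.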

Metformin + Navitoclax = compound: CN(C)C(=N)NC(=N)N [Metformin] + CC1(C)CCC(c2ccc(Cl)cc2)=C(CN2CCN(c3ccc(C(=O)NS(=O)(=O)c4ccc(N[C@H](CCN5CCOCC5)CSc5ccccc5)c(S(=O)(=O)C(F)(F)F)c4)cc3)CC2)C1 [Navitoclax] (partner 0.5 µM); test: as above
In short: as §1

Row | Cell Line | relative viability (Apatinib + Foretinib; first compound 0.08 µM) | relative viability (Apatinib + Foretinib; first compound 0.253 µM) | relative viability (Apatinib + Foretinib; first compound 0.8 µM) | relative viability (Apatinib + Foretinib; first compound 2.53 µM) | relative viability (Apatinib + Foretinib; first compound 8 µM) | relative viability (Metformin + Navitoclax; first compound 10 µM) | relative viability (Metformin + Navitoclax; first compound 31.62 µM) | relative viability (Metformin + Navitoclax; first compound 100 µM) | relative viability (Metformin + Navitoclax; first compound 316.23 µM) | relative viability (Metformin + Navitoclax; first compound 1000 µM)
1 | NCI-H838 | 1.14 | 1.18 | 0.997 | 0.946 | 0.986 | 1.19 | 1.23 | 1.21 | 1.15 | 1.22
2 | NCI-H1755 | 0.984 | 0.954 | 0.912 | 0.91 | 0.806 | 0.821 | 0.897 | 0.912 | 0.89 | 0.935
3 | NCI-H1734 | 0.932 | 0.833 | 0.839 | 0.732 | 0.676 | 0.882 | 0.863 | 0.908 | 0.822 | 0.905
4 | NCI-H2009 | 1.39 | 1.18 | 1.17 | 1.07 | 0.853 | 1.19 | 1.16 | 1.21 | 1.17 | 1.07
5 | SW 1573 | 0.981 | 1.07 | 0.963 | 0.854 | 0.821 | 0.878 | 0.835 | 1.11 | 0.994 | 1.1
6 | HARA | 0.976 | 0.898 | 0.812 | 0.847 | 0.93 | 1.13 | 1.1 | 1.2 | 1.02 | 1.16
7 | PC-3 [JPC-3] | 1.02 | 1 | 0.986 | 0.925 | 0.853 | 0.702 | 0.735 | 0.821 | 0.761 | 0.732
8 | NCI-H1666 | 0.953 | 0.998 | 0.942 | 0.943 | 1.03 | 1.17 | 1.05 | 0.956 | 0.899 | 1.07
9 | NCI-H520 | 0.865 | 0.72 | 0.844 | 0.558 | 0.651 | 1.1 | 1.08 | 1.13 | 0.979 | 1.19
10 | NCI-H2023 | 0.963 | 0.751 | 0.849 | 1.02 | 0.794 |  | 0.973 | 0.876 |  | 0.567
11 | LXF-289 | 0.915 | 1.02 | 0.984 | 0.954 | 0.905 | 0.912 | 0.918 | 0.939 | 0.914 | 0.901
12 | EPLC-272H | 0.773 |  | 0.802 | 0.671 | 0.394 | 1.23 | 1.1 | 1.04 | 1.1 | 1.4
13 | NCI-H1623 | 0.912 | 0.826 | 0.844 | 0.802 | 0.777 |  |  |  |  | 
14 | NCI-H2087 | 1.22 | 1.13 | 0.91 | 1.02 | 0.899 | 0.951 | 0.86 | 0.96 | 0.782 | 0.834
15 | NCI-H647 | 1.14 | 1.39 | 1.16 | 1.13 | 0.977 | 0.869 | 1.13 | 1.44 | 1.12 | 0.763
16 | NCI-H661 | 1 | 0.93 | 1.04 | 1.02 | 0.941 |  |  |  |  | 
17 | NCI-H358 | 0.83 | 0.912 | 0.671 | 0.685 | 0.696 |  |  |  |  | 
18 | NCI-H2342 | 1.01 | 1.05 | 1.02 | 0.983 | 0.936 |  |  |  |  | 
